From patent US4806554A, “Pyrazol and indazolpyridinamines” (Hoechst-Roussel Pharmaceuticals, Inc., priority 1988, dated 1989) come the findings set out here.

For test [1], the system named is 2-phenyl-1,4-benzoquinone-induced writhing in mice. The test is described as follows: 2-phenyl-1,4-benzoquinone-induced writhing (PQW) test in mice (analgesia). Format: in vivo. To be noted: s.c. The text has this: Compounds I of the present invention are also useful as analgesic agents due to their ability to alleviate pain in mammals. […] Exptl. Biol. Med., 95, 729(1957)] and in modified Haffner's analgesia.
(In general: An intraperitoneal irritant provokes the stretching counted in writhing tests.)

Test [2] concerns tetrabenazine-induced ptosis in mice. Description: Prevention of tetrabenazine-induced ptosis in mice (antidepressant activity). To be noted: Mus musculus, po, read-out: ED50 (antidepressant activity). Type of test: in vivo. The source says:
The test method and results are described below.
PREVENTION OF TETRABENAZINE-INDUCED PTOSIS IN MICE
Tetrabenazine (TBZ) induces behavioral depression with concomitant ptosis in mice similar to reserpine. Antidepressant compounds, both monoamineoxidase inhibitors and tricyclics, are known to prevent or antagonize these effects and the degree of antagonism correlates with clinical efficacy. The prevention of TBZ-induced ptosis in mice is used as a preliminary screen for possible antidepressant activity. The method used in this invention is as follows:
Male mice weighing 20 to 30 grams are used in test groups of five subjects. All compounds are dissolved or suspended with a suitable surfactant in distilled water and administered in volumes of 10 ml/kg of body weight. TBZ solution is made from the methanesulfonate salt and the concentration is adjusted to enable administration of 60 mg/kg of base by intraperitoneal (i.p.) injection.
The pretreatment time is measured from the time of dosing to observation. Therefore, when a 30-minute pretreat is utilized, drug and TBZ are given simultaneously. A control group received solvent and TBZ at intervals identical to drug group. For a primary screen, the drug is administered i.p. and a group size of five is utilized. Eight animals/group are used for a dose range.
The total score for each group of five in a primary screen will, therefore, be from 0 to 20 and these scores are used as indications of drug activity.
The vehicle control group score is used as a determinant of the validity of each test. […] The calculation of percent inhibition of ptosis is: [formula]

Test [3] relates to sensitivity of mice to pressure stress (artery clip on tail). Description: Modified Haffner's analgesia (artery clip on tail). Format: in vivo, mice (Charles River. As to conditions: Mus musculus, sc; at peak time of drug activity; male CD-1 mice. The source says: The latter assay is used to evaluate analgesic activity by measuring drug-induced changes in the sensitivity of mice to pressure stress by placing an artery clip (21/2 inches long) on their tail. The procedure used is a modification of the test developed by Haffner, Dtsch. Med. Wschr. 55, 731 (1929), and it is described below:
Male mice (Charles River, CD-1) from 18-30 grams are used for the test. An artery clip is applied to the root of the tail of a mouse (approximately 1/2 inch from the body) to induce pain. The animals quickly responds to this noxious stimuli by biting the clip or the location of the clip. This reaction time, the interval between stimulus onset and response, is recorded on 1/10 second increments by a stop watch.
For a time response, the screening dose (25 mg/kg) is administered subcutaneously (10 ml/kg) to the animal receiving food and water ad libitum before testing. […]
The cut-off time (CO) is determined by taking the (x) average +3 standard (SD) deviation of the combined response latencies of the control mice in all time periods.
Any reaction time, in subsequent drug tests, which is greater than the CO (for the same time period) therefore exceeds 99% of normal Gaussian distribution and is called "positive response" indicative of analgesic activity. […] The ED50 is determined at the peak time of drug activity. […] ED50 's are calculated using computer analysis.

Structures are written as SMILES. Read-outs that look alike come from different tables or passages of the source.

One may read the ED50 as the dose that gives a 50% effect, or the effect in half of the subjects. Consider `O=C(O)/C=C\C(=O)O.c1ccc2c(c1)cnn2Nc1ccncc1` [N-(4-Pyridinyl)-1H-indazol-1-amine maleate], for which, in test [1] (at 0.7 mg/kg), the “PQW (% Inhibition of writhing)” value amounted to 50%. Besides, the ED50 in test [2] (TBZ 60 mg/kg i.p., male mice) came out at 2.7 mg/kg; in test [3] it was 10.4 mg/kg.
`CNCCCN1c2ccccc2CCc2ccccc21` [Desipramine, reference compound]: the ED50 in test [2] was 2.3 mg/kg.
For `CC(C)=CCN1CCC2(C)c3cc(O)ccc3CC1C2C` (centres unmarked) [Pentazocin, reference compound], in test [1] (at 1.3 mg/kg), the “PQW (% Inhibition of writhing)” value was found to be 50%. This molecule came in with an ED50 in test [3] of 3.9 mg/kg.
For the molecule `CCCN(c1ccncc1)n1ncc2ccccc21.O=C(O)/C=C\C(=O)O` [N-(Propyl)-N-(4-pyridinyl)-1H-indazol-1-amine maleate], in test [1] (at 20 mg/kg), the “PQW (% Inhibition of writhing)” value came to 62%. The median effective dose (ED50) in test [2] (TBZ 60 mg/kg i.p., male mice) amounted to 8.5 mg/kg.
